In one experiment the test system is SARS-CoV-2. The following applies: for SARS-CoV-2 % of inhibition at 100 µM: 24 h.
Experiment [1] has as its target T1, SARS-CoV-2 PLpro (Severe acute respiratory syndrome coronavirus 2, UniProt P0DTD1). As to the kind of experiment: Microscale thermophoresis (MST) binding assay. The note with it: 100 nM labelled PLpro, peptides 0.015 to 500 µM, 50 mM HEPES pH 7.5, 100 mM NaCl, 2 mM DTT, DMSO 5%; triplicate, Hill fit. For orientation: In MST a laser heats a spot of the sample, and binding alters the fluorescence response.

In experiment [2] the target is T1, SARS-CoV-2 PLpro. The experiment in a line: SARS-CoV-2 PLpro FRET enzyme inhibition assay. The following applies: for inhibition at 10 µM: 10 µM peptide, 27 µM substrate, 37 °C. In kind it is biochemical.
The mark [3] stands for this setting: 70 nM enzyme, 27 µM FRET substrate, 50 mM HEPES pH 7.5, 0.01% Triton X-100, 5 mM DTT, 30 min pre-incubation at 37 °C, Hill fit, two independent experiments, read-out: IC50 against PLpro.
The mark [4] stands for this setting: calculated from IC50 values, Figure 3A, read-out: pIC50 (−logIC50), PLpro (converted).

Where two headings read alike, the source gives them in different places. Bridge positions count the residues as written; N and C are the ends. Ends that are not written are not given here. Peptide text beside a SMILES is read from it. I, II: the chains in the order shown.

`CC(C)C[C@H](NC(=O)[C@H](Cc1c[nH]cn1)NC(=O)[C@H](Cc1ccc(O)cc1)NC(=O)[C@H](CCCNC(=N)N)NC(=O)[C@H](Cc1ccc(O)cc1)NC(=O)[C@H](CCCCN)NC(=O)[C@H](C)N)C(=O)N[C@@H](CCCCN)C(=O)N1CCC[C@H]1C(=O)N[C@@H](Cc1ccccc1)C(=O)NCCCC[C@H](NC(=O)[C@H](Cc1ccccc1)NC(=O)[C@@H]1CCCN1C(=O)[C@H](CCCCN)NC(=O)[C@H](CC(C)C)NC(=O)[C@H](Cc1c[nH]cn1)NC(=O)[C@H](Cc1ccc(O)cc1)NC(=O)[C@H](CCCNC(=N)N)NC(=O)[C@H](Cc1ccc(O)cc1)NC(=O)[C@H](CCCCN)NC(=O)[C@H](C)N)C(N)=O` [A1] (I: H-AKYRYHLKPFK-NH2 / II: H-AKYRYHLKPF; amide I:11-II:C): the “SARS-CoV-2 % of inhibition at 100 µM” value in the experiment with SARS-CoV-2 is reported as 4%. On SARS-CoV-2 PLpro [1], this molecule returned a Kd of 6 ± 3 µM. Moreover, on SARS-CoV-2 PLpro [2] (setting [3]), the IC50 was 3500 ± 100 nM. On SARS-CoV-2 PLpro [2] (70 nM enzyme), this molecule yielded an inhibition at 10 µM of 97%.
Turning to `CC(C)C[C@H](NC(=O)[C@H](Cc1c[nH]cn1)NC(=O)[C@H](Cc1ccc(O)cc1)NC(=O)[C@H](CCCNC(=N)N)NC(=O)[C@H](Cc1ccc(O)cc1)NC(=O)[C@H](CCCCN)NC(=O)[C@@H](N)CCCCN)C(=O)N[C@@H](CCCCN)C(=O)N1CCC[C@H]1C(=O)N[C@@H](Cc1ccccc1)C(=O)NCCCC[C@H](NC(=O)[C@H](Cc1ccccc1)NC(=O)[C@@H]1CCCN1C(=O)[C@H](CCCCN)NC(=O)[C@H](CC(C)C)NC(=O)[C@H](Cc1c[nH]cn1)NC(=O)[C@H](Cc1ccc(O)cc1)NC(=O)[C@H](CCCNC(=N)N)NC(=O)[C@H](Cc1ccc(O)cc1)NC(=O)[C@H](CCCCN)NC(=O)[C@@H](N)CCCCN)C(N)=O` [(pBthTX-I)2K, des-Cys^11,Lys^12,Lys^13-(pBthTX-I)2K] (I: H-KKYRYHLKPFK-NH2 / II: H-KKYRYHLKPF; amide I:11-II:C), binding at SARS-CoV-2 PLpro [1] was put at a Kd of 0.9 ± 0.1 µM. The same molecule yielded an inhibition at 10 µM at SARS-CoV-2 PLpro [2] (70 nM enzyme) of 98%. Also, the IC50 at SARS-CoV-2 PLpro [2] (setting [4]) is 2400 nM.
On to `CC[C@H](C)[C@H](N)C(=O)N[C@@H](Cc1ccccc1)C(=O)NCC(=O)N[C@@H](C)C(=O)N[C@H](C(=O)N[C@@H](CC(C)C)C(=O)N1CCC[C@H]1C(=O)N[C@@H](CC(C)C)C(=O)N[C@@H](C)C(=O)N[C@@H](CC(C)C)C(=O)NCC(=O)N[C@@H](C)C(=O)N[C@@H](CC(C)C)C(=O)N[C@@H](CCCCN)C(=O)N[C@@H](CC(N)=O)C(=O)N[C@@H](CC(C)C)C(=O)N[C@H](C(=O)N[C@@H](CCCCN)C(N)=O)[C@@H](C)CC)[C@@H](C)CC` [Hy-a1, Hylin a1, reference compound] (H-IFGAILPLALGALKNLIK-NH2; N-terminus and C-terminus assumed), for which the “SARS-CoV-2 % of inhibition at 100 µM” value in the experiment with SARS-CoV-2 was 59%. 10 µM produced 13% inhibition against SARS-CoV-2 PLpro [2] (70 nM enzyme).
On SARS-CoV-2 PLpro [1], `CC(C)C[C@H](NC(=O)[C@H](Cc1c[nH]cn1)NC(=O)[C@H](Cc1ccc(O)cc1)NC(=O)[C@H](CCCNC(=N)N)NC(=O)[C@H](C)NC(=O)[C@H](CCCCN)NC(=O)[C@@H](N)CCCCN)C(=O)N[C@@H](CCCCN)C(=O)N1CCC[C@H]1C(=O)N[C@@H](Cc1ccccc1)C(=O)NCCCC[C@H](NC(=O)[C@H](Cc1ccccc1)NC(=O)[C@@H]1CCCN1C(=O)[C@H](CCCCN)NC(=O)[C@H](CC(C)C)NC(=O)[C@H](Cc1c[nH]cn1)NC(=O)[C@H](Cc1ccc(O)cc1)NC(=O)[C@H](CCCNC(=N)N)NC(=O)[C@H](C)NC(=O)[C@H](CCCCN)NC(=O)[C@@H](N)CCCCN)C(N)=O` [A3] (I: H-KKARYHLKPFK-NH2 / II: H-KKARYHLKPF; amide I:11-II:C) had a Kd of 6 ± 4 µM. In addition, the IC50 on SARS-CoV-2 PLpro [2] (setting [3]) came out at 1000 ± 30 nM. The inhibition at 10 µM against SARS-CoV-2 PLpro [2] (70 nM enzyme) came to 95%.
For `CC(C)C[C@H](NC(=O)[C@H](Cc1c[nH]cn1)NC(=O)[C@H](C)NC(=O)[C@H](CCCNC(=N)N)NC(=O)[C@H](Cc1ccc(O)cc1)NC(=O)[C@H](CCCCN)NC(=O)[C@@H](N)CCCCN)C(=O)N[C@@H](CCCCN)C(=O)N1CCC[C@H]1C(=O)N[C@@H](Cc1ccccc1)C(=O)NCCCC[C@H](NC(=O)[C@H](Cc1ccccc1)NC(=O)[C@@H]1CCCN1C(=O)[C@H](CCCCN)NC(=O)[C@H](CC(C)C)NC(=O)[C@H](Cc1c[nH]cn1)NC(=O)[C@H](C)NC(=O)[C@H](CCCNC(=N)N)NC(=O)[C@H](Cc1ccc(O)cc1)NC(=O)[C@H](CCCCN)NC(=O)[C@@H](N)CCCCN)C(N)=O` [A5] (I: H-KKYRAHLKPFK-NH2 / II: H-KKYRAHLKPF; amide I:11-II:C) the same measures were 3 ± 2 µM, 1900 ± 10 nM and 95%.
Consider “I: KKYRYHLKPFKK-NH2 / II: KKYRYHLKPFK / III: KKYRYHLKPF / IV: KKYRYHLKPF (amide I:11-IV:C, I:12-II:C, II:11-III:C) [A11]”, for which the “SARS-CoV-2 % of inhibition at 100 µM” value in the experiment on SARS-CoV-2 worked out at 54%. Also, the Kd on SARS-CoV-2 PLpro [1] stood at 1 ± 0.2 µM. This molecule also showed an inhibition at 10 µM against SARS-CoV-2 PLpro [2] (70 nM enzyme) of 98%. Also, the IC50 on SARS-CoV-2 PLpro [2] (setting [4]) is 1410 nM.
With `CC(C)C[C@H](NC(=O)[C@H](Cc1c[nH]cn1)NC(=O)[C@H](Cc1ccc(O)cc1)NC(=O)[C@H](C)NC(=O)[C@H](Cc1ccc(O)cc1)NC(=O)[C@H](CCCCN)NC(=O)[C@@H](N)CCCCN)C(=O)N[C@@H](CCCCN)C(=O)N1CCC[C@H]1C(=O)N[C@@H](Cc1ccccc1)C(=O)NCCCC[C@H](NC(=O)[C@H](Cc1ccccc1)NC(=O)[C@@H]1CCCN1C(=O)[C@H](CCCCN)NC(=O)[C@H](CC(C)C)NC(=O)[C@H](Cc1c[nH]cn1)NC(=O)[C@H](Cc1ccc(O)cc1)NC(=O)[C@H](C)NC(=O)[C@H](Cc1ccc(O)cc1)NC(=O)[C@H](CCCCN)NC(=O)[C@@H](N)CCCCN)C(N)=O` [A4] (I: H-KKYAYHLKPFK-NH2 / II: H-KKYAYHLKPF; amide I:11-II:C), in the experiment with SARS-CoV-2, the “SARS-CoV-2 % of inhibition at 100 µM” value amounted to 10%. This molecule gave a Kd on SARS-CoV-2 PLpro [1] of 3 ± 1 µM. The IC50 on SARS-CoV-2 PLpro [2] (setting [3]) was 2000 ± 30 nM. For the same molecule, the inhibition at 10 µM on SARS-CoV-2 PLpro [2] (70 nM enzyme) was determined as 97%.
Turning to `CC(C)C[C@H](NC(=O)[C@H](Cc1c[nH]cn1)NC(=O)[C@H](Cc1ccc(O)cc1)NC(=O)[C@H](CCCNC(=N)N)NC(=O)[C@H](Cc1ccc(O)cc1)NC(=O)[C@H](CCCCN)NC(=O)[C@@H](N)CCCCN)C(=O)N[C@@H](CCCCN)C(=O)N1CCC[C@H]1C(=O)N[C@@H](C)C(=O)NCCCC[C@H](NC(=O)[C@H](C)NC(=O)[C@@H]1CCCN1C(=O)[C@H](CCCCN)NC(=O)[C@H](CC(C)C)NC(=O)[C@H](Cc1c[nH]cn1)NC(=O)[C@H](Cc1ccc(O)cc1)NC(=O)[C@H](CCCNC(=N)N)NC(=O)[C@H](Cc1ccc(O)cc1)NC(=O)[C@H](CCCCN)NC(=O)[C@@H](N)CCCCN)C(N)=O` [A10] (I: H-KKYRYHLKPAK-NH2 / II: H-KKYRYHLKPA; amide I:11-II:C), the “SARS-CoV-2 % of inhibition at 100 µM” value in the experiment with SARS-CoV-2 came to 7%. For the same molecule, the IC50 on SARS-CoV-2 PLpro [2] (setting [3]) was 2400 ± 200 nM. The molecule further registered an inhibition at 10 µM against SARS-CoV-2 PLpro [2] (70 nM enzyme) of 98%.
On to `CC(C)C[C@H](NC(=O)[C@H](Cc1c[nH]cn1)NC(=O)[C@H](Cc1ccc(O)cc1)NC(=O)[C@H](CCCNC(=N)N)NC(=O)[C@H](Cc1ccc(O)cc1)NC(=O)[C@H](CCCCN)NC(=O)[C@@H](N)CCCCN)C(=O)N[C@@H](C)C(=O)N1CCC[C@H]1C(=O)N[C@@H](Cc1ccccc1)C(=O)NCCCC[C@H](NC(=O)[C@H](Cc1ccccc1)NC(=O)[C@@H]1CCCN1C(=O)[C@H](C)NC(=O)[C@H](CC(C)C)NC(=O)[C@H](Cc1c[nH]cn1)NC(=O)[C@H](Cc1ccc(O)cc1)NC(=O)[C@H](CCCNC(=N)N)NC(=O)[C@H](Cc1ccc(O)cc1)NC(=O)[C@H](CCCCN)NC(=O)[C@@H](N)CCCCN)C(N)=O` [A8] (I: H-KKYRYHLAPFK-NH2 / II: H-KKYRYHLAPF; amide I:11-II:C), for which, at SARS-CoV-2 PLpro [2] (70 nM enzyme), 10 µM produced 99% inhibition. Moreover, the IC50 on SARS-CoV-2 PLpro [2] (setting [4]) was 2400 nM.
For the molecule `Cc1c(-c2ccc(-c3ccccc3F)cc2)nc2ccc(F)cc2c1C(=O)O` [BREQ, brequinar, reference compound], the “SI = selectivity index (CC50/EC50)” value with SARS-CoV-2 (CC50/EC50 in Vero cells) is more than 25.

The term Kd denotes the concentration at which binding is half-saturated. One may read the inhibition as the drop in the measured response relative to a control, in per cent.

The values above are taken from PMC8401042, “Non-Toxic Dimeric Peptides Derived from the Bothropstoxin-I Are Potent SARS-CoV-2 and Papain-like Protease Inhibitors” (Molecules, 2021).
